What was measured:
[1] = system: HT29; test: Cell proliferation analysis (MTS assay); format: cell-based; settings: Homo sapiens, HT-29, HT29 cells, treated for 72 hours, read-out: Antiproliferative activity (HT29 MTS GI50)
Experimental: Cell survival was determined by the MTS assay. Briefly, cells were plated in a 96-well plate at 2,000-10,000 cells per well, cultured for 24 hours in complete growth medium, and then treated with various drugs and drug combinations for 72 hours. MTS was added and incubated for 4 hour, followed by assessment of cell viability using the microplate reader at 570 nm. Data were normalized to untreated controls and analyzed.

[2] = biological target: c-Met (Homo sapiens, UniProt P08581); test: c-Met autophosphorylation inhibition assay (biochemical); settings: method per J. Biol. Chem. 286(23), 20666-20676
c-Met, sequence (P08581 25-1390): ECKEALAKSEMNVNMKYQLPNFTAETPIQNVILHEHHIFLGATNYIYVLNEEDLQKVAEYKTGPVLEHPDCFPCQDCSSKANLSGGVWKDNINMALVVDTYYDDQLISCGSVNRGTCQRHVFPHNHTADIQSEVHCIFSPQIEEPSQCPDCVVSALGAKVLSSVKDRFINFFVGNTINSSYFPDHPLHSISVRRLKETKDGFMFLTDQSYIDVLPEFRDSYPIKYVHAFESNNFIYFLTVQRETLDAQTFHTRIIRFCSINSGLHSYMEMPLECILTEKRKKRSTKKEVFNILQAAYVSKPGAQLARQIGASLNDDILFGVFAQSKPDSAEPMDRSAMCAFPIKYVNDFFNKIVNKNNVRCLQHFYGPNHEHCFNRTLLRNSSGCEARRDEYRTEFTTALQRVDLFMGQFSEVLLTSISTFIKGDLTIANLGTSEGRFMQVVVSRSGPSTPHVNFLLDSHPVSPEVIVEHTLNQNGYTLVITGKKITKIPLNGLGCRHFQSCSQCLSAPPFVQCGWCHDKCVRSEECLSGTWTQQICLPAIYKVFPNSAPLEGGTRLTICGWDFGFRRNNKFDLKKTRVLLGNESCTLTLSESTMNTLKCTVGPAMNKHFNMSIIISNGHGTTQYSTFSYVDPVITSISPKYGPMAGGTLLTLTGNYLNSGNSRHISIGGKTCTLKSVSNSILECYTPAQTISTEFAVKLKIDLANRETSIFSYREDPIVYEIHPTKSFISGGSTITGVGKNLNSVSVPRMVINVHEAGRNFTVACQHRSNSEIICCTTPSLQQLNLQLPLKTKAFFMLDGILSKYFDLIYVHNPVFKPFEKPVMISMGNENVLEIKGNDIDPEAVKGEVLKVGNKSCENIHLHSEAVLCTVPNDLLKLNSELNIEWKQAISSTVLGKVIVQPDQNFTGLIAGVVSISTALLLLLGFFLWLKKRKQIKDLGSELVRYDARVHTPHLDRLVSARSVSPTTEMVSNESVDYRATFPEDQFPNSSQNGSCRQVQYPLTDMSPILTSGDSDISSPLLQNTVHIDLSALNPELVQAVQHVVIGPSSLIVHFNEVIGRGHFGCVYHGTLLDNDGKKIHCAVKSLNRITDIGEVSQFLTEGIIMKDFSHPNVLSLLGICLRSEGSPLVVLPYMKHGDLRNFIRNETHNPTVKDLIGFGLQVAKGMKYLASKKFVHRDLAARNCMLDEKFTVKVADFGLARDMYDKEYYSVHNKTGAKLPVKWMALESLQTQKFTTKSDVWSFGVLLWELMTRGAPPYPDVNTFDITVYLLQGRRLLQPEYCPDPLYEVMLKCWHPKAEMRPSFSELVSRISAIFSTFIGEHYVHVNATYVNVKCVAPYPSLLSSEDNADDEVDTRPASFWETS
Experimental: c-Met Autophosphorylation Inhibition assay was carried out according to Journal of Biological Chemistry 286(23), 20666-20676 (Jun. 10, 2010).

Compound	melting point [°C]	GI50 [1] [nM]	IC50 [2] [nM]
O=C1NC(=O)[C@@H](c2cn3c4c(cccc24)CCC3)[C@@H]1c1c[nH]c2cc(O)ccc12 (racemic) [Compound 1, (rac)-trans-3-(5,6-dihydro-4H-pyrrolo[3,2,1-ij]quinolin-1-yl)-4-(6-hydroxy-1H-indol-3-yl)pyrrolidine-2,5-dione]	167 to 170		
O=C1NC(=O)[C@@H](c2cn3c4c(cccc24)C(O)CC3)[C@@H]1c1c[nH]c2ccccc12 (mixture of isomers) [Compound 3, (rac)-trans-3-(6-hydroxy-5,6-dihydro-4H-pyrrolo[3,2,1-ij]quinolin-1-yl)-4-(1H-indol-3-yl)pyrrolidine-2,5-dione]	153 to 155		
O=C1CCn2cc([C@@H]3C(=O)NC(=O)[C@H]3c3c[nH]c4ccccc34)c3cccc1c32 (racemic) [Compound 8, (3R,4R)-3-(1H-indol-3-yl)-4-(6-oxo-5,6-dihydro-4H-pyrrolo[3,2,1-ij]quinolin-1-yl)pyrrolidine-2,5-dione]		680 ± 50	1600 ± 250
O=C1NC(=O)[C@@H](c2cn3c4c(cccc24)CCC3=O)[C@@H]1c1c[nH]c2ccccc12 (racemic) [Compound 9, (3R,4R)-3-(1H-indol-3-yl)-4-(4-oxo-5,6-dihydro-4H-pyrrolo[3,2,1-ij]quinolin-1-yl)pyrrolidine-2,5-dione]		3100 ± 240	1000
O=C1NC(=O)[C@@H](c2cn3c4c(cccc24)[C@@H](O)CC3)[C@@H]1c1c[nH]c2ccccc12 [Compound 10, (3R,4R)-3-((S)-6-hydroxy-5,6-dihydro-4H-pyrrolo[3,2,1-ij]quinolin-1-yl)-4-(1H-indol-3-yl)pyrrolidine-2,5-dione]		1500 ± 210	2000 ± 210
O=C1NC(=O)[C@@H](c2cn3c4c(cccc24)[C@H](O)CC3)[C@@H]1c1c[nH]c2ccccc12 [Compound 11, (3R,4R)-3-((R)-6-hydroxy-5,6-dihydro-4H-pyrrolo[3,2,1-ij]quinolin-1-yl)-4-(1H-indol-3-yl)pyrrolidine-2,5-dione]		3700 ± 420	2600 ± 70
O=C1NC(=O)[C@H](c2cn3c4c(cccc24)[C@H](O)CC3)[C@H]1c1c[nH]c2ccccc12 [Compound 12, (3S,4S)-3-((R)-6-hydroxy-5,6-dihydro-4H-pyrrolo[3,2,1-ij]quinolin-1-yl)-4-(1H-indol-3-yl)pyrrolidine-2,5-dione]		31000 ± 7100	> 30000
O=C1NC(=O)[C@H](c2cn3c4c(cccc24)[C@@H](O)CC3)[C@H]1c1c[nH]c2ccccc12 [Compound 13, (3S,4S)-3-((S)-6-hydroxy-5,6-dihydro-4H-pyrrolo[3,2,1-ij]quinolin-1-yl)-4-(1H-indol-3-yl)pyrrolidine-2,5-dione]		75000 ± 33000	> 30000

Source: patent US8470786B2, “Pyrroloquinolinyl-pyrrolidine-2,5-dione compositions and methods for preparing and using same” (ArQule, Inc., priority 2010, dated 2013)
